Values quoted from earlier work, collected in patent US12257290B2, “PIC1 inhibition of myeloperoxidase oxidative activity in an animal model” (priority 2018, dated 2025).

Details: intranasal administration; animal models; cited from earlier work

In the case of DNase, the “symptoms of TRALI” value is listed as “reduced symptoms of TRALI”.
